Results taken from patent publication US9505781B2, “Compositions comprising thienopyrimidine and thienopyridine compounds and methods of use thereof” (The Regents of the University of Michigan, priority 2013, dated 2016).

Biological target: T1, menin-MLL interaction (Homo sapiens, UniProt O00255)
T1 sequence (O00255 1-610): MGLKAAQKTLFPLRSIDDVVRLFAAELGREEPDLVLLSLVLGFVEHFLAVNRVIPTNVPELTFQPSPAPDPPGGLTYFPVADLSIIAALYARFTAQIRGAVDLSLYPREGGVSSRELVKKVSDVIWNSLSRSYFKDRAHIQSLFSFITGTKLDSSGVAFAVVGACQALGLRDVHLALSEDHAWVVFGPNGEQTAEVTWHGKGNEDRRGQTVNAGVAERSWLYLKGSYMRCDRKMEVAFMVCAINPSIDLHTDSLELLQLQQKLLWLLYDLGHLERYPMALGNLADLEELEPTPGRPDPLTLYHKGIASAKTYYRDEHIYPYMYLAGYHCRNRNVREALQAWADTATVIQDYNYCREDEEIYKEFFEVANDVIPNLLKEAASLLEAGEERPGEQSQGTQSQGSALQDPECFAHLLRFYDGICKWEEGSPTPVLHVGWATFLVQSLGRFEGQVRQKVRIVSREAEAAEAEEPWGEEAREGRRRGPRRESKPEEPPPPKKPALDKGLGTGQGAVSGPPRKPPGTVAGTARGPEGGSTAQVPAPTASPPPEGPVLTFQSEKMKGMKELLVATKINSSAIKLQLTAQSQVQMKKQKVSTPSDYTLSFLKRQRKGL
Experiment: biochemical
From the text: Compounds that inhibit the interaction decrease the fluorescence anisotropy which is being used as a read-out for compound screening and for IC50 determination.

Row | IC50 | SMILES
1 | 100 to 500 nM | N#Cc1ccc(CN2CCC(CNc3ncnc4sc(CC(F)(F)F)cc34)CC2)cc1 [Compound 263]
2 | 100 to 500 nM | Cc1cc(CN2CCC(Nc3ncnc4sc(CC(F)(F)F)cc34)CC2)cc2cc(C#N)[nH]c12 [Compound 410]
3 | 100 to 500 nM | FC(F)(F)Cc1cc2c(NC3CCN(Cc4ccc(CN5CCCCC5)cc4)CC3)ncnc2s1 [Compound 116]
4 | < 100 nM | Cc1c(CN2CCC(Nc3ncnc4sc(CC(F)(F)F)cc34)CC2)c(O)cc2c1cc(C#N)n2Cc1c[nH]nn1 [Compound 391]
5 | 100 to 500 nM | FC(F)(F)Cc1cc2c(NCC3CCN(Cc4ccc(Cl)cc4Cl)CC3)ncnc2s1 [Compound 254]
6 | < 100 nM | Cc1c(CN2CCC(Nc3ncnc4sc(CC(F)(F)F)cc34)CC2)ccc2c1cc(C#N)n2CC(O)CN1CCNCC1 (centres unmarked) [Compound 358]
7 | < 100 nM | N#Cc1cc2cc(CN3CCC(Nc4ncnc5sc(CC(F)(F)F)cc45)CC3)ccc2n1CCn1ccnn1 [Compound 207]
8 | < 100 nM | CS(=O)(=O)N(CC#N)c1ccc(CC(=O)N2CCN(c3ncnc4sc(CC(F)(F)F)cc34)CC2)cc1 [Compound 61]
9 | 500 to 2000 nM | CCCCc1cc2c(N3CCN(c4nnc(C(F)(F)F)s4)CC3)ncnc2s1 [Compound 34]
10 | 500 to 2000 nM | CC(C)c1cc2c(N3CCN(c4nnc(C(F)(F)F)s4)CC3)ncnc2s1 [Compound 32]
11 | < 100 nM | N#Cc1cc2cc(CN3CCC(Nc4ncnc5sc(CC(F)(F)F)cc45)CC3)ccc2n1CC(CO)OC1CC1 (centres unmarked) [Compound 222]
12 | 100 to 500 nM | Oc1cccc(O)c1CN1CCC(Nc2ncnc3sc(CC(F)(F)F)cc23)CC1 [Compound 111]
13 | < 100 nM | Cc1ncc(Cn2c(C#N)cc3c(C)c(CN4CCC(Nc5ncnc6sc(CC(F)(F)F)cc56)CC4)ccc32)[nH]1 [Compound 351]
14 | 500 to 2000 nM | O=C1NCCC1c1ccc(CC(=O)N2CCN(c3ncnc4sc(CC(F)(F)F)cc34)CC2)cc1 (centres unmarked) [Compound 99]
15 | 100 to 500 nM | OCc1cccc2c(CN3CCC(Nc4ncnc5sc(CC(F)(F)F)cc45)CC3)c[nH]c12 [Compound 242]
16 | 500 to 2000 nM | Nc1ccc(CN2CCC(Nc3ncnc4sc(CC(F)(F)F)cc34)CC2)cc1 [Compound 139]
17 | < 100 nM | NS(=O)(=O)Cc1ccc(CC(=O)N2CCN(c3ncnc4sc(CC(F)(F)F)cc34)CC2)cc1 [Compound 44, (4-(2-oxo-2-(4-(6-(2,2,2-trifluoroethyl)thieno[2,3-d]pyrimidin-4-yl)piperazin-1-yl)ethyl)phenyl)methanesulfonamide]
18 | < 100 nM | COc1c(CN2CCC(Nc3ncnc4sc(CC(F)(F)F)cc34)CC2)ccc2c1cc(C#N)n2CC(N)=O [Compound 193]
19 | 100 to 500 nM | FC(F)(F)Cc1cc2c(NCC3CCN(Cc4ccc(N5CCOCC5)cc4Cl)CC3)ncnc2s1 [Compound 259]
20 | 100 to 500 nM | NS(=O)(=O)c1ccc(CN2CCC(CNc3ncnc4sc(CC(F)(F)F)cc34)CC2)cc1 [Compound 262]
21 | < 100 nM | CC(C)OC(CO)Cn1c(C#N)cc2cc(CN3CCC(Nc4ncnc5sc(CC(F)(F)F)cc45)CC3)ccc21 (centres unmarked) [Compound 292]
22 | 100 to 500 nM | COc1ccc(CCCc2nnc(N3CCN(c4ncnc5sc(CC(F)(F)F)cc45)CC3)s2)cc1 [Compound 12]
23 | 100 to 500 nM | N#Cc1ccc(N2CCC(N3CCN(c4ncnc5sc(CC(F)(F)F)cc45)CC3)CC2)cc1 [Compound 13]
24 | < 100 nM | N#Cc1cc2c(C3CC3)c(CN3CCC(Nc4ncnc5sc(CC(F)(F)F)cc45)CC3)ccc2[nH]1 [Compound 293]
25 | < 100 nM | N#Cc1cc2c(F)c(CN3CCC(Nc4ncnc5sc(CC(F)(F)F)cc45)CC3)ccc2n1CC(N)=O [Compound 205]
26 | < 100 nM | CCn1c(C#N)cc2cc(CN3CCC(Nc4ncnc5sc(CC(F)(F)F)cc45)CC3)ccc21 [Compound 177]
27 | 100 to 500 nM | Cc1ccccc1CN1CCC(CNc2ncnc3sc(CC(F)(F)F)cc23)CC1 [Compound 258]

Row | IC50 | SMILES
28 | < 100 nM | Cc1c(CN2CCC(Nc3ncnc4sc(CC(F)(F)F)cc34)CC2)c(O)cc2c1cc(C#N)n2CCO [Compound 387]
29 | < 100 nM | N#Cc1cc2c(Cl)c(CN3CCC(Nc4ncnc5sc(CC(F)(F)F)cc45)CC3)ccc2n1C[C@H](O)CO [Compound 226]
30 | < 100 nM | N#Cc1cc2cc(CN3CCC(Nc4ncnc5sc(CC(F)(F)F)cc45)CC3)ccc2n1CO [Compound 183]
31 | 500 to 2000 nM | CC1(C)CN=C(N2CCN(c3ncnc4sc(CCc5ccccc5)cc34)CC2)S1 [Compound 35]
32 | < 100 nM | CO[C@H](CO)Cn1c(C#N)cc2cc(CN3CCC(Nc4ncnc5sc(CC(F)(F)F)cc45)CC3)ccc21 [Compound 191]
33 | < 100 nM | Cc1nn[nH]c1Cn1c(C#N)cc2c(C)c(CN3CCC(Nc4ncnc5sc(CC(F)(F)F)cc45)CC3)ccc21 [Compound 327]
34 | 500 to 2000 nM | O=C(N1CCCC1)N1CCN(c2ncnc3sc(CC(F)(F)F)cc23)CC1 [Compound 86]
35 | < 100 nM | Cc1c(CN2CCC(Nc3ncnc4sc(CC(F)(F)F)cc34)CC2)ccc2c1cc(C#N)n2CCN1CCNC(C(F)(F)F)C1 (centres unmarked) [Compound 378]
36 | 500 to 2000 nM | FC(F)(F)Cc1cc2c(NCC3CCN(Cc4ccc(C(F)(F)F)cc4Cl)CC3)ncnc2s1 [Compound 268]
37 | 100 to 500 nM | CNn1c(C#N)cc2cc(CN3CCC(Nc4ncnc5sc(CC(F)(F)F)cc45)CC3)ccc21 [Compound 231]
38 | 500 to 2000 nM | CCCc1cc2c(NC3CCN(Cc4ccccc4Br)CC3)ncnc2s1 [Compound 152]
39 | 100 to 500 nM | N#Cc1cc2c(OC(F)F)c(CN3CCC(Nc4ncnc5sc(CC(F)(F)F)cc45)CC3)ccc2[nH]1 [Compound 408]
40 | < 100 nM | Cc1c(CN2CCC(Nc3ncnc4sc(CC(F)(F)F)cc34)CC2)ccc2c1cc(C#N)n2CC(N)=O [Compound 301]
41 | 100 to 500 nM | O=C(Cc1cccc(F)c1)N1CCN(c2ncnc3sc(CC(F)(F)F)cc23)CC1 [Compound 73]
42 | < 100 nM | Cc1c(CN2CCC(Nc3ncnc4sc(CC(F)(F)F)cc34)CC2)ccc2c1cc(C#N)n2CC1CCC(=O)N1 (centres unmarked) [Compound 427]
43 | 500 to 2000 nM | N#Cc1nc2cc(CN3CCC(Nc4ncnc5sc(CC(F)(F)F)cc45)CC3)ccc2[nH]1 [Compound 249]
44 | 100 to 500 nM | FC(F)(F)Cc1cc2c(NC3CCN(Cc4ccc5cc[nH]c5c4)CC3)ncnc2s1 [Compound 227]
45 | 100 to 500 nM | FC(F)(F)Cc1cc2c(NC3CCN(Cc4cc[nH]c4)CC3)ncnc2s1 [Compound 134]
46 | < 100 nM | Cc1c(CN2CCC(Nc3ncnc4sc(CC(F)(F)F)cc34)CC2)ccc2c1cc(C#N)n2CC1CN(C)C(=O)CO1 (centres unmarked) [Compound 426]
47 | 100 to 500 nM | FC(F)(F)Cc1cc2c(N[C@H]3CCN(Cc4ccccc4)C[C@@H]3NCCc3ccccc3)ncnc2s1 [Compound 168]
48 | < 100 nM | N#Cc1cc2c(Br)c(CN3CCC(Nc4ncnc5sc(CC(F)(F)F)cc45)CC3)ccc2[nH]1 [Compound 298]
49 | < 100 nM | N#Cc1[nH]c2ccc(CN3CCC(Nc4ncnc5sc(CC(F)(F)F)cc45)CC3)cc2c1F [Compound 176]
50 | 500 to 2000 nM | CN1CCC(N2CCN(c3ncnc4sc(CC(F)(F)F)cc34)CC2)CC1 [Compound 27]
51 | 500 to 2000 nM | FC(F)(F)Cc1cc2c(NCC3CCN(Cc4ccccc4)CC3)ncnc2s1 [Compound 277]
52 | < 100 nM | CO[C@@H](CO)Cn1c(C#N)cc2cc(CN3CCC(Nc4ncnc5sc(CC(F)(F)F)cc45)CC3)ccc21 [Compound 190]
53 | 100 to 500 nM | N#Cc1cc2cc(CN3CCC(Nc4ncnc5sc(CC(F)(F)F)cc45)CC3)cc(F)c2[nH]1 [Compound 245]
